Laboratory results taken from ChEMBL document CHEMBL3992498, “Novel biguanide-based derivatives scouted as TAAR1 agonists: Synthesis, biological evaluation, ADME prediction and molecular docking studies” (Eur J Med Chem, 2017).
The source made the active and inactive calls. The calls are words filed in the database; no cut-off is given here.

Test system: not listed separately
Assay: Selectivity ratio of EC50 for human TAAR1 expressed in HEK293 cells to EC50 for mouse TAAR1 expressed in HEK293 cells
Type: cell-based

Compound | Ratio EC50
N=C(N)NC(=N)Nc1ccc(Cl)cc1 [4-CHLOROPHENYLBIGUANIDE] | > 4.76
Cc1ccc(NC(=N)N=C(N)N)cc1 | > 5.88
NC(N)=N/C(N)=N/Cc1cccc(Br)c1 | 2.72
N=C(N)NC(=N)Nc1ccccc1Cl | 2.44
NC(N)=N/C(N)=N/Cc1cccc(Cl)c1 | 72.2
NC(N)=N/C(N)=N/Cc1ccccc1Cl | 7.31
NC(N)=N/C(N)=N/Cc1ccc(Cl)cc1 | 2.31
NC(N)=N/C(N)=N/Cc1ccc(Cl)c(Cl)c1 | 33.3
CC(C)NC(=N)NC(=N)Nc1ccc(Cl)cc1 | > 1.85
NC(N)=N/C(N)=N/Cc1cccc(F)c1 | 2.96
N=C(N)NC(=N)NCc1ccccc1 | > 12.8

Biological target: Trace amine-associated receptor 1 (Mus musculus) (UniProt Q923Y8)
Assay: Agonist activity at mouse TAAR1 expressed in HEK293 cells assessed as cAMP accumulation at 10 uM after 20 mins by BRET assay relative to beta-PEA
Type: functional, cell-based

Trace amine-associated receptor 1 (Mus musculus), sequence (Q923Y8 whole entry): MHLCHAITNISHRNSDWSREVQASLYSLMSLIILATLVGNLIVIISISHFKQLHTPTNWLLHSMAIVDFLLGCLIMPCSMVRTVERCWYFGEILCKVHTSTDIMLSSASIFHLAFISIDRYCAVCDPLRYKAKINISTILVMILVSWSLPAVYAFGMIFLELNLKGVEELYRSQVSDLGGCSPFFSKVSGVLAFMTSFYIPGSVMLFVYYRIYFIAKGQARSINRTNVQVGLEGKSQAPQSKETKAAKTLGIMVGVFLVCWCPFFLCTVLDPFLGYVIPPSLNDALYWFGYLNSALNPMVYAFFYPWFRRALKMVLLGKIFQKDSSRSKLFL

Compound | Emax | Activity
N=C(N)NC(=N)Nc1ccc(Cl)cc1 [4-CHLOROPHENYLBIGUANIDE] | > 85% | 
CC1(C)N=C(N)N=C(N)N1c1ccc(Cl)cc1 [CYCLOGUANIL] |  | inactive
COc1ccc(CNC(=N)NC(=N)N)cc1 |  | inactive
COc1cc(Cc2cnc(N)nc2N)cc(OC)c1OC [TRIMETHOPRIM] |  | inactive
COc1ccc(C/N=C(\N)N=C(N)N)cc1OC |  | inactive
Cc1ccc(NC(=N)N=C(N)N)cc1 | > 85% | 
NC(N)=N/C(N)=N/Cc1cccc(Br)c1 | > 85% | 
N=C(N)NC(=N)Nc1ccccc1Cl | > 85% | 
COc1ccc(/N=C(\N)N=C(N)N)cc1 |  | inactive
NC(N)=N/C(N)=N/C1CCCCCC1 |  | inactive
N=C(N)NC(=N)Nc1ccccc1 [PHENYL BIGUANIDE] |  | inactive
NC(N)=N/C(N)=N/Cc1cccc(Cl)c1 | > 85% | 
N=C(N)NC(=N)NC12CC3CC(CC(C3)C1)C2 |  | inactive
NC(N)=N/C(N)=N/Cc1ccccc1Cl | > 85% | 
N=C(N)NC(=N)Nc1ccc(Cl)c(Cl)c1 |  | inactive
NC(N)=N/C(N)=N/C1CCCC1 |  | inactive
NC(N)=N/C(N)=N/c1ccc([N+](=O)[O-])cc1 |  | inactive
N=C(N)NC(=N)Nc1cccc(Cl)c1 |  | inactive
NC(N)=N/C(N)=N/Cc1ccc(Cl)cc1 | > 85% | 
NC(N)=N/C(N)=N/c1cccc(F)c1 |  | inactive
CCc1nc(N)nc(N)c1-c1ccc(Cl)cc1 [PYRIMETHAMINE] |  | inactive
NC(N)=N/C(N)=N/Cc1ccc(Cl)c(Cl)c1 | > 85% | 
CC(C)NC(=N)NC(=N)Nc1ccc(Cl)cc1 | > 85% | 
NC1=NC2(CCCCC2)N(c2ccc(Cl)cc2)C(N)=N1 |  | inactive
NC(N)=N/C(N)=N/Cc1cccc(F)c1 | > 85% | 
N=C(N)NC(=N)N1CCOCC1 |  | inactive
N=C(N)NC(=N)NCc1ccccc1 | > 85% | 

Biological target: T1, Trace amine-associated receptor 1 (Homo sapiens, UniProt Q96RJ0)
T1 sequence (Q96RJ0 whole entry): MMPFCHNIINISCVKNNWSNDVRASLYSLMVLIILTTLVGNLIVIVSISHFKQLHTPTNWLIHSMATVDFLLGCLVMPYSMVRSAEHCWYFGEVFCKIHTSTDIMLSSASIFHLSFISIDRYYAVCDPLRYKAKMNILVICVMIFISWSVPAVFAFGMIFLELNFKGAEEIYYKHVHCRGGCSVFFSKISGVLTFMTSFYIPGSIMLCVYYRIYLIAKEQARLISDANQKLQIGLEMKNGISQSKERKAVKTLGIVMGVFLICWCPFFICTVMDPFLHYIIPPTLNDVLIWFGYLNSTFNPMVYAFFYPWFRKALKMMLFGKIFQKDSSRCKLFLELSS
Assay: […] of full length recombinant human N-terminal HA-tagged/C-terminal FLAG-tagged TAAR1 expressed in CHOK1 cells assessed as increase in cAMP accumulation by AlphaScreen assay
Type: functional, cell-based

Compound | EC50
NCCc1ccc(Oc2ccc(O)cc2)c(I)c1 | 1.69 µM

Biological target: Trace amine-associated receptor 1 (Mus musculus, UniProt Q923Y8)
Assay: Agonist activity at mouse TAAR1 expressed in HEK293 cells assessed as cAMP accumulation after 20 mins by BRET assay
Type: functional, cell-based

Trace amine-associated receptor 1 (Mus musculus, UniProt Q923Y8), sequence (Q923Y8 whole entry): as the sequence (Q923Y8 whole entry) above

Compound | EC50
N=C(N)NC(=N)Nc1ccc(Cl)cc1 [4-CHLOROPHENYLBIGUANIDE] | 2.1 µM
Cc1ccc(NC(=N)N=C(N)N)cc1 | 1.7 µM
NC(N)=N/C(N)=N/Cc1cccc(Br)c1 | 1.8 µM
N=C(N)NC(=N)Nc1ccccc1Cl | 0.41 µM
NC(N)=N/C(N)=N/Cc1cccc(Cl)c1 | 0.097 µM
NC(N)=N/C(N)=N/Cc1ccccc1Cl | 0.41 µM
NC(N)=N/C(N)=N/Cc1ccc(Cl)cc1 | 0.78 µM
NC(N)=N/C(N)=N/Cc1ccc(Cl)c(Cl)c1 | 0.036 µM
[H]/N=C(\N/C(=N/[H])Nc1ccc(Cl)cc1)NC(C)C [PROGUANIL] | 5.4 µM
NC(N)=N/C(N)=N/Cc1cccc(F)c1 | 0.54 µM
N=C(N)NC(=N)NCc1ccccc1 | 0.78 µM

Biological target: T2, Trace amine-associated receptor 5 (Mus musculus, UniProt Q5QD14)
T2 sequence (Q5QD14 whole entry): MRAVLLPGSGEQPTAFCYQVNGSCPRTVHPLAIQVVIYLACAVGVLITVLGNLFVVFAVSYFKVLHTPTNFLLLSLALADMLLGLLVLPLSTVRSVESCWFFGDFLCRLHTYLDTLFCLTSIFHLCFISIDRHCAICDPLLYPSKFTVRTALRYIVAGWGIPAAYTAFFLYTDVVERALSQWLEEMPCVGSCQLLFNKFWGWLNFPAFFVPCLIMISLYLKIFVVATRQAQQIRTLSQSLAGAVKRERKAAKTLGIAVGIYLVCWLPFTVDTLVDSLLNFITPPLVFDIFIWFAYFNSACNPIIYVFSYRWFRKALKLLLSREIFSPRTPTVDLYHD
Assay: Agonist activity at mouse TAAR5 expressed in HEK293 cells assessed as cAMP accumulation after 20 mins by BRET assay
Type: functional, cell-based

Compound | EC50
N=C(N)NC(=N)Nc1ccc(Cl)cc1 [4-CHLOROPHENYLBIGUANIDE] | > 10 µM
CC1(C)N=C(N)N=C(N)N1c1ccc(Cl)cc1 [CYCLOGUANIL] | > 10 µM
COc1ccc(CNC(=N)NC(=N)N)cc1 | > 10 µM
COc1cc(Cc2cnc(N)nc2N)cc(OC)c1OC [TRIMETHOPRIM] | > 10 µM
N=C(N)/N=C(\N)N1CCOCC1 [MOROXYDINE] | > 10 µM
COc1ccc(C/N=C(\N)N=C(N)N)cc1OC | > 10 µM
Cc1ccc(NC(=N)N=C(N)N)cc1 | > 10 µM
NC(N)=N/C(N)=N/Cc1cccc(Br)c1 | > 10 µM
N=C(N)NC(=N)Nc1ccccc1Cl | > 10 µM
COc1ccc(/N=C(\N)N=C(N)N)cc1 | > 10 µM
NC(N)=N/C(N)=N/C1CCCCCC1 | > 10 µM
N=C(N)NC(=N)Nc1ccccc1 [PHENYL BIGUANIDE] | > 10 µM
NC(N)=N/C(N)=N/Cc1cccc(Cl)c1 | > 10 µM
N=C(N)NC(=N)NC12CC3CC(CC(C3)C1)C2 | > 10 µM
NC(N)=N/C(N)=N/Cc1ccccc1Cl | > 10 µM
N=C(N)NC(=N)Nc1ccc(Cl)c(Cl)c1 | > 10 µM
NC(N)=N/C(N)=N/C1CCCC1 | > 10 µM
NC(N)=N/C(N)=N/c1ccc([N+](=O)[O-])cc1 | > 10 µM
N=C(N)NC(=N)Nc1cccc(Cl)c1 | > 10 µM
NC(N)=N/C(N)=N/Cc1ccc(Cl)cc1 | > 10 µM
NC(N)=N/C(N)=N/c1cccc(F)c1 | > 10 µM
CCc1nc(N)nc(N)c1-c1ccc(Cl)cc1 [PYRIMETHAMINE] | > 10 µM
NC(N)=N/C(N)=N/Cc1ccc(Cl)c(Cl)c1 | > 10 µM
[H]/N=C(\N/C(=N/[H])Nc1ccc(Cl)cc1)NC(C)C [PROGUANIL] | > 10 µM
NC1=NC2(CCCCC2)N(c2ccc(Cl)cc2)C(N)=N1 | > 10 µM
NC(N)=N/C(N)=N/Cc1cccc(F)c1 | > 10 µM
N=C(N)NC(=N)NCc1ccccc1 | > 10 µM

Biological target: T3, Trace amine-associated receptor 1 (Homo sapiens) (UniProt Q96RJ0)
T3 sequence (whole entry): T1 sequence (Q96RJ0 whole entry)
Assay: Agonist activity at human TAAR1 expressed in HEK293 cells assessed as cAMP accumulation at 10 uM after 20 mins by BRET assay relative to beta-PEA
Type: functional, cell-based

Compound | Emax | Activity
N=C(N)NC(=N)Nc1ccc(Cl)cc1 [4-CHLOROPHENYLBIGUANIDE] | > 85% | 
CC1(C)N=C(N)N=C(N)N1c1ccc(Cl)cc1 [CYCLOGUANIL] |  | inactive
COc1ccc(CNC(=N)NC(=N)N)cc1 |  | inactive
COc1cc(Cc2cnc(N)nc2N)cc(OC)c1OC [TRIMETHOPRIM] |  | inactive
COc1ccc(C/N=C(\N)N=C(N)N)cc1OC |  | inactive
Cc1ccc(NC(=N)N=C(N)N)cc1 | > 85% | 
NC(N)=N/C(N)=N/Cc1cccc(Br)c1 | > 85% | 
N=C(N)NC(=N)Nc1ccccc1Cl | > 85% | 
COc1ccc(/N=C(\N)N=C(N)N)cc1 |  | inactive
NC(N)=N/C(N)=N/C1CCCCCC1 |  | inactive
N=C(N)NC(=N)Nc1ccccc1 [PHENYL BIGUANIDE] |  | inactive
NC(N)=N/C(N)=N/Cc1cccc(Cl)c1 | > 85% | 
N=C(N)NC(=N)NC12CC3CC(CC(C3)C1)C2 |  | inactive
NC(N)=N/C(N)=N/Cc1ccccc1Cl | > 85% | 
N=C(N)NC(=N)Nc1ccc(Cl)c(Cl)c1 |  | inactive
NC(N)=N/C(N)=N/C1CCCC1 |  | inactive
NC(N)=N/C(N)=N/c1ccc([N+](=O)[O-])cc1 |  | inactive
N=C(N)NC(=N)Nc1cccc(Cl)c1 |  | inactive
NC(N)=N/C(N)=N/Cc1ccc(Cl)cc1 | > 85% | 
NC(N)=N/C(N)=N/c1cccc(F)c1 |  | inactive
CCc1nc(N)nc(N)c1-c1ccc(Cl)cc1 [PYRIMETHAMINE] |  | inactive
NC(N)=N/C(N)=N/Cc1ccc(Cl)c(Cl)c1 | > 85% | 
CC(C)NC(=N)NC(=N)Nc1ccc(Cl)cc1 | > 85% | 
NC1=NC2(CCCCC2)N(c2ccc(Cl)cc2)C(N)=N1 |  | inactive
NC(N)=N/C(N)=N/Cc1cccc(F)c1 | > 85% | 
N=C(N)NC(=N)N1CCOCC1 |  | inactive
N=C(N)NC(=N)NCc1ccccc1 | > 85% | 

Biological target: T1, Trace amine-associated receptor 1
Assay: Agonist activity at human TAAR1 expressed in HEK293 cells assessed as cAMP accumulation after 20 mins by BRET assay
Type: functional, cell-based

Compound | EC50
N=C(N)NC(=N)Nc1ccc(Cl)cc1 [4-CHLOROPHENYLBIGUANIDE] | > 10 µM
Cc1ccc(NC(=N)N=C(N)N)cc1 | > 10 µM
NC(N)=N/C(N)=N/Cc1cccc(Br)c1 | 4.9 µM
N=C(N)NC(=N)Nc1ccccc1Cl | 1 µM
NC(N)=N/C(N)=N/Cc1cccc(Cl)c1 | 7 µM
NC(N)=N/C(N)=N/Cc1ccccc1Cl | 3 µM
NC(N)=N/C(N)=N/Cc1ccc(Cl)cc1 | 1.8 µM
NC(N)=N/C(N)=N/Cc1ccc(Cl)c(Cl)c1 | 1.2 µM
[H]/N=C(\N/C(=N/[H])Nc1ccc(Cl)cc1)NC(C)C [PROGUANIL] | > 10 µM
NC(N)=N/C(N)=N/Cc1cccc(F)c1 | 1.6 µM
N=C(N)NC(=N)NCc1ccccc1 | > 10 µM
